Assay results taken from the NIST ThermoML archive (doi:10.1021/acs.jced.6b00332).

Assay: mn = molality of the nth substance listed, in mol/kg
Settings: 100 kPa, Liquid; for speed of sound: Frequency=3 MHz, Sing-around technique in a fixed-path interferometer; for mass density: Vibrating tube method

CCCC[N+](CCCC)(CCCC)CCCC.[Br-] [tetrabutylammonium bromide] + O
m1 = 0.01
Settings | mass density [kg/m3] | speed of sound [m/s]
293.15 K | 998.57 | 1485.3
298.15 K | 997.35 | 1499.2
303.15 K | 995.88 | 1511.4
308.15 K | 994.29 | 1521.9
313.15 K | 992.33 | 1531
318.15 K | 990.43 | 1538.6

CCCCC[N+](CCCCC)(CCCCC)CCCCC.[Br-] [tetrapentylammonium bromide] + O
m1 = 0.01
Settings | mass density [kg/m3] | speed of sound [m/s]
293.15 K | 998.34 | 1485.3
298.15 K | 997 | 1499.1
303.15 K | 995.7 | 1511.2
308.15 K | 994.05 | 1521.6
313.15 K | 991.93 | 1530.5
318.15 K | 990.16 | 1537.9

CCCCCCCCCCCC[N+](C)(C)C.[Br-] [dodecyltrimethylammonium bromide] + O
Settings | mass density [kg/m3] | speed of sound [m/s]
293.15 K, m1 = 0.003 | 998.31 | 1483.3
293.15 K, m1 = 0.006 | 998.37 | 1484.2
293.15 K, m1 = 0.009 | 998.43 | 1484.9
293.15 K, m1 = 0.012 | 998.49 | 1485.6
293.15 K, m1 = 0.015 | 998.54 | 1486.3
293.15 K, m1 = 0.018 | 998.6 | 1486.7
293.15 K, m1 = 0.021 | 998.65 | 1486.8
293.15 K, m1 = 0.024 | 998.7 | 1486.9
293.15 K, m1 = 0.027 | 998.75 | 1487
293.15 K, m1 = 0.03 | 998.81 | 1487
293.15 K, m1 = 0.033 | 998.87 | 1487.1
293.15 K, m1 = 0.036 | 998.92 | 1487.1
293.15 K, m1 = 0.039 | 998.95 | 1487.1
293.15 K, m1 = 0.042 | 999 | 1487.1
293.15 K, m1 = 0.045 | 999.05 | 1487
298.15 K, m1 = 0.003 | 997.2 | 1497.2
298.15 K, m1 = 0.006 | 997.26 | 1497.9
298.15 K, m1 = 0.009 | 997.32 | 1498.6
298.15 K, m1 = 0.012 | 997.37 | 1499.2
298.15 K, m1 = 0.015 | 997.43 | 1499.9
298.15 K, m1 = 0.018 | 997.49 | 1500.2
298.15 K, m1 = 0.021 | 997.53 | 1500.3
298.15 K, m1 = 0.024 | 997.58 | 1500.3
298.15 K, m1 = 0.027 | 997.63 | 1500.4
298.15 K, m1 = 0.03 | 997.67 | 1500.4
298.15 K, m1 = 0.033 | 997.71 | 1500.5
298.15 K, m1 = 0.036 | 997.75 | 1500.4
298.15 K, m1 = 0.039 | 997.79 | 1500.5
298.15 K, m1 = 0.042 | 997.82 | 1500.4
298.15 K, m1 = 0.045 | 997.85 | 1500.5
303.15 K, m1 = 0.003 | 995.71 | 1509.7
303.15 K, m1 = 0.006 | 995.76 | 1510.3
303.15 K, m1 = 0.009 | 995.82 | 1511
303.15 K, m1 = 0.012 | 995.87 | 1511.6
303.15 K, m1 = 0.015 | 995.92 | 1512
303.15 K, m1 = 0.018 | 995.97 | 1512.2
303.15 K, m1 = 0.021 | 996.02 | 1512.2
303.15 K, m1 = 0.024 | 996.07 | 1512.2
303.15 K, m1 = 0.027 | 996.11 | 1512.2
303.15 K, m1 = 0.03 | 996.16 | 1512.2
303.15 K, m1 = 0.033 | 996.21 | 1512.2
303.15 K, m1 = 0.036 | 996.24 | 1512.2
303.15 K, m1 = 0.039 | 996.29 | 1512.3
303.15 K, m1 = 0.042 | 996.32 | 1512.2
303.15 K, m1 = 0.045 | 996.36 | 1512.3
308.15 K, m1 = 0.003 | 994.26 | 1520.3
308.15 K, m1 = 0.006 | 994.31 | 1520.9
308.15 K, m1 = 0.009 | 994.36 | 1521.5
308.15 K, m1 = 0.012 | 994.41 | 1522
308.15 K, m1 = 0.015 | 994.46 | 1522.6
308.15 K, m1 = 0.018 | 994.51 | 1522.6
308.15 K, m1 = 0.021 | 994.55 | 1522.6
308.15 K, m1 = 0.024 | 994.59 | 1522.6
308.15 K, m1 = 0.027 | 994.63 | 1522.6
308.15 K, m1 = 0.03 | 994.67 | 1522.5
308.15 K, m1 = 0.033 | 994.72 | 1522.5
308.15 K, m1 = 0.036 | 994.77 | 1522.5
308.15 K, m1 = 0.039 | 994.79 | 1522.5
308.15 K, m1 = 0.042 | 994.82 | 1522.6
308.15 K, m1 = 0.045 | 994.84 | 1522.5
313.15 K, m1 = 0.003 | 992.29 | 1529.4
313.15 K, m1 = 0.006 | 992.33 | 1529.9
313.15 K, m1 = 0.009 | 992.38 | 1530.4
313.15 K, m1 = 0.012 | 992.42 | 1530.9
313.15 K, m1 = 0.015 | 992.47 | 1531.4
313.15 K, m1 = 0.018 | 992.51 | 1531.5
313.15 K, m1 = 0.021 | 992.55 | 1531.4
313.15 K, m1 = 0.024 | 992.59 | 1531.4
313.15 K, m1 = 0.027 | 992.63 | 1531.3
313.15 K, m1 = 0.03 | 992.67 | 1531.3
313.15 K, m1 = 0.033 | 992.71 | 1531.2
313.15 K, m1 = 0.036 | 992.77 | 1531.3
313.15 K, m1 = 0.039 | 992.81 | 1531.3
313.15 K, m1 = 0.042 | 992.87 | 1531.3
313.15 K, m1 = 0.045 | 992.9 | 1531.2
318.15 K, m1 = 0.003 | 990.28 | 1536.3
318.15 K, m1 = 0.006 | 990.33 | 1536.7
318.15 K, m1 = 0.009 | 990.37 | 1537.2
318.15 K, m1 = 0.012 | 990.39 | 1537.8
318.15 K, m1 = 0.015 | 990.42 | 1538.2
318.15 K, m1 = 0.018 | 990.45 | 1538.4
318.15 K, m1 = 0.021 | 990.48 | 1538.6
318.15 K, m1 = 0.024 | 990.52 | 1538.7
318.15 K, m1 = 0.027 | 990.55 | 1538.7
318.15 K, m1 = 0.03 | 990.57 | 1538.7
318.15 K, m1 = 0.033 | 990.61 | 1538.9
318.15 K, m1 = 0.036 | 990.64 | 1538.9
318.15 K, m1 = 0.039 | 990.67 | 1539
318.15 K, m1 = 0.042 | 990.7 | 1539.1
318.15 K, m1 = 0.045 | 990.72 | 1539.1
